#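 Cultured in 96-well plates, cells were exposed to test compound for 48 hours across five concentrations. TGI: concentration producing complete growth inhibition.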
# Columns and labels:
# Assay in all cases: DTP human tumour cell line panel, 48 h
# OVCAR-5 ovarian = system: OVCAR-5 ovarian
# PC-3 prostate = system: PC-3 prostate
# HCT-116 colon = system: HCT-116 colon
# MCF7 breast = system: MCF7 breast
# DU-145 prostate = system: DU-145 prostate
# HOP-62 NSCLC = system: HOP-62 NSCLC
# HT29 colon = system: HT29 colon
# IGROV1 ovarian = system: IGROV1 ovarian
# OVCAR-3 ovarian = system: OVCAR-3 ovarian
# NCI-H23 lung = system: NCI-H23 lung
# HOP-92 NSCLC = system: HOP-92 NSCLC
# SR leukemia = system: SR leukemia
# T-47D breast = system: T-47D breast
# COLO 205 colon = system: COLO 205 colon
# BT-549 breast = system: BT-549 breast
# UACC-62 melanoma = system: UACC-62 melanoma
# 786-0 renal = system: 786-0 renal
# NCI/ADR-RES ovarian = system: NCI/ADR-RES ovarian
# ACHN renal = system: ACHN renal
# SK-MEL-5 melanoma = system: SK-MEL-5 melanoma
# U251 CNS = system: U251 CNS
# SF-295 CNS = system: SF-295 CNS
# UO-31 renal = system: UO-31 renal
# A549 NSCLC = system: A549 NSCLC
# SK-MEL-28 melanoma = system: SK-MEL-28 melanoma
# OVCAR-8 ovarian = system: OVCAR-8 ovarian
# RPMI-8226 leukemia = system: RPMI-8226 leukemia
# UACC-257 melanoma = system: UACC-257 melanoma
# K-562 leukemia = system: K-562 leukemia
# NCI-H460 lung = system: NCI-H460 lung
# HL-60(TB) leukemia = system: HL-60(TB) leukemia
# M14 melanoma = system: M14 melanoma
# KM12 colon = system: KM12 colon
# CCRF-CEM leukemia = system: CCRF-CEM leukemia
# SNB-19 CNS = system: SNB-19 CNS
# TK-10 renal = system: TK-10 renal
# LOX IMVI melanoma = system: LOX IMVI melanoma
# SK-OV-3 ovarian = system: SK-OV-3 ovarian
# SF-539 CNS = system: SF-539 CNS
# MDA-N = system: MDA-N
# NCI-H226 lung = system: NCI-H226 lung
# RXF 393 renal = system: RXF 393 renal
# EKVX NSCLC = system: EKVX NSCLC
# MALME-3M melanoma = system: MALME-3M melanoma
# SF-268 CNS = system: SF-268 CNS
# SK-MEL-2 melanoma = system: SK-MEL-2 melanoma
# HCT-15 colon = system: HCT-15 colon
# SW-620 colon = system: SW-620 colon
# SN12C renal = system: SN12C renal
# MDA-MB-231 breast = system: MDA-MB-231 breast
# CAKI-1 renal = system: CAKI-1 renal
# NCI-H522 lung = system: NCI-H522 lung
# MOLT-4 leukemia = system: MOLT-4 leukemia
# SNB-75 CNS = system: SNB-75 CNS
# HCC-2998 colon = system: HCC-2998 colon
# MDA-MB-435 = system: MDA-MB-435
# HS 578T breast = system: HS 578T breast
# OVCAR-4 ovarian = system: OVCAR-4 ovarian
# A498 renal = system: A498 renal
smiles,measurement,setting,value
COc1ccc(/C=C2\CSC/C(=C\c3ccc(OC)c(OC)c3OC)C2=O)c(OC)c1OC,TGI,OVCAR-5 ovarian,> 100 µM
same,TGI,PC-3 prostate,> 100 µM
same,TGI,HCT-116 colon,39 µM
same,TGI,MCF7 breast,> 100 µM
same,TGI,DU-145 prostate,> 100 µM
same,TGI,HOP-62 NSCLC,> 100 µM
same,TGI,HT29 colon,> 100 µM
same,TGI,IGROV1 ovarian,> 100 µM
same,TGI,OVCAR-3 ovarian,> 100 µM
same,TGI,NCI-H23 lung,> 100 µM
same,TGI,HOP-92 NSCLC,96.1 µM
same,TGI,SR leukemia,80.4 µM
same,TGI,T-47D breast,> 100 µM
same,TGI,COLO 205 colon,> 100 µM
same,TGI,BT-549 breast,> 100 µM
same,TGI,UACC-62 melanoma,30.4 µM
same,TGI,786-0 renal,48.1 µM
same,TGI,NCI/ADR-RES ovarian,> 100 µM
same,TGI,ACHN renal,52.9 µM
same,TGI,SK-MEL-5 melanoma,88.6 µM
same,TGI,U251 CNS,> 100 µM
same,TGI,SF-295 CNS,99.6 µM
same,TGI,UO-31 renal,> 100 µM
same,TGI,A549 NSCLC,> 100 µM
same,TGI,SK-MEL-28 melanoma,> 100 µM
same,TGI,OVCAR-8 ovarian,80.8 µM
same,TGI,RPMI-8226 leukemia,67.3 µM
same,TGI,UACC-257 melanoma,> 100 µM
same,TGI,K-562 leukemia,> 100 µM
same,TGI,NCI-H460 lung,> 100 µM
same,TGI,HL-60(TB) leukemia,72.1 µM
same,TGI,M14 melanoma,40.2 µM
same,TGI,KM12 colon,> 100 µM
same,TGI,CCRF-CEM leukemia,> 100 µM
same,TGI,SNB-19 CNS,> 100 µM
same,TGI,TK-10 renal,> 100 µM
same,TGI,LOX IMVI melanoma,83.3 µM
same,TGI,SK-OV-3 ovarian,> 100000 nM
same,TGI,SF-539 CNS,88.6 µM
same,TGI,MDA-N,> 100 µM
same,TGI,NCI-H226 lung,> 100 µM
same,TGI,RXF 393 renal,53.7 µM
same,TGI,EKVX NSCLC,> 100 µM
same,TGI,MALME-3M melanoma,27.6 µM
same,TGI,SF-268 CNS,> 100 µM
same,TGI,SK-MEL-2 melanoma,> 100 µM
same,TGI,HCT-15 colon,74.1 µM
same,TGI,SW-620 colon,58.6 µM
same,TGI,SN12C renal,78.2 µM
same,TGI,MDA-MB-231 breast,> 100 µM
CC1C(c2ccc3c(c2)OCO3)c2cc3c(cc2OC1N1CCCC1)OCO3 (configuration not stated),TGI,OVCAR-5 ovarian,> 100 µM
same,TGI,PC-3 prostate,> 100 µM
same,TGI,CAKI-1 renal,38.6 µM
same,TGI,HCT-116 colon,54.8 µM
same,TGI,NCI-H522 lung,80.4 µM
same,TGI,MCF7 breast,> 100 µM
same,TGI,DU-145 prostate,> 100 µM
same,TGI,HOP-62 NSCLC,> 100 µM
same,TGI,HT29 colon,> 100 µM
same,TGI,IGROV1 ovarian,> 100 µM
same,TGI,OVCAR-3 ovarian,> 100 µM
same,TGI,NCI-H23 lung,> 100 µM
same,TGI,MOLT-4 leukemia,69.9 µM
same,TGI,SR leukemia,89.8 µM
same,TGI,SNB-75 CNS,61.7 µM
same,TGI,T-47D breast,> 100 µM
same,TGI,COLO 205 colon,> 100 µM
same,TGI,UACC-62 melanoma,> 100 µM
same,TGI,786-0 renal,> 100 µM
same,TGI,NCI/ADR-RES ovarian,87.7 µM
same,TGI,ACHN renal,> 100 µM
same,TGI,SK-MEL-5 melanoma,47.2 µM
same,TGI,HCC-2998 colon,49.1 µM
same,TGI,SF-295 CNS,> 100 µM
same,TGI,UO-31 renal,73 µM
same,TGI,A549 NSCLC,> 100 µM
same,TGI,SK-MEL-28 melanoma,> 100 µM
same,TGI,OVCAR-8 ovarian,> 100 µM
same,TGI,RPMI-8226 leukemia,73.2 µM
same,TGI,UACC-257 melanoma,> 100 µM
same,TGI,K-562 leukemia,61.4 µM
same,TGI,NCI-H460 lung,> 100 µM
same,TGI,M14 melanoma,57.6 µM
same,TGI,KM12 colon,> 100 µM
same,TGI,CCRF-CEM leukemia,76.1 µM
same,TGI,SNB-19 CNS,> 100 µM
same,TGI,TK-10 renal,> 100 µM
same,TGI,LOX IMVI melanoma,> 100 µM
same,TGI,SF-539 CNS,50.9 µM
same,TGI,MDA-MB-435,23.7 µM
same,TGI,MDA-N,52.3 µM
same,TGI,EKVX NSCLC,> 100 µM
same,TGI,SF-268 CNS,> 100 µM
same,TGI,SK-MEL-2 melanoma,90.4 µM
same,TGI,HCT-15 colon,> 100 µM
same,TGI,SW-620 colon,> 100 µM
same,TGI,SN12C renal,> 100 µM
same,TGI,HS 578T breast,44.5 µM
CN(C)CCNc1ccc([N+](=O)[O-])c2nc3ccccc3c(N)c12,TGI,OVCAR-5 ovarian,> 10 µM
same,TGI,PC-3 prostate,2.87 µM
same,TGI,CAKI-1 renal,> 10 µM
same,TGI,HCT-116 colon,1.91 µM
same,TGI,MCF7 breast,> 10 µM
same,TGI,DU-145 prostate,> 10 µM
same,TGI,HOP-62 NSCLC,> 10 µM
same,TGI,HT29 colon,3.07 µM
same,TGI,IGROV1 ovarian,2.78 µM
same,TGI,OVCAR-3 ovarian,3.32 µM
same,TGI,NCI-H23 lung,6.55 µM
same,TGI,HOP-92 NSCLC,7.71 µM
same,TGI,MOLT-4 leukemia,4.74 µM
same,TGI,SR leukemia,1.73 µM
same,TGI,SNB-75 CNS,3.96 µM
same,TGI,T-47D breast,3.7 µM
same,TGI,COLO 205 colon,1.84 µM
same,TGI,UACC-62 melanoma,3.54 µM
same,TGI,786-0 renal,> 10 µM
same,TGI,NCI/ADR-RES ovarian,2.45 µM
same,TGI,ACHN renal,3.51 µM
same,TGI,SK-MEL-5 melanoma,2.79 µM
same,TGI,U251 CNS,> 10 µM
same,TGI,SF-295 CNS,8.1 µM
same,TGI,OVCAR-4 ovarian,3.58 µM
same,TGI,UO-31 renal,4.27 µM
same,TGI,A549 NSCLC,4.23 µM
same,TGI,SK-MEL-28 melanoma,> 10 µM
same,TGI,OVCAR-8 ovarian,> 10 µM
same,TGI,RPMI-8226 leukemia,1.51 µM
same,TGI,UACC-257 melanoma,> 10 µM
same,TGI,K-562 leukemia,5.35 µM
same,TGI,NCI-H460 lung,1.66 µM
same,TGI,HL-60(TB) leukemia,6.86 µM
same,TGI,M14 melanoma,1.94 µM
same,TGI,KM12 colon,1.75 µM
same,TGI,CCRF-CEM leukemia,> 10 µM
same,TGI,SNB-19 CNS,> 10 µM
same,TGI,TK-10 renal,> 10 µM
same,TGI,LOX IMVI melanoma,2.11 µM
same,TGI,SK-OV-3 ovarian,1330 nM
same,TGI,SF-539 CNS,4.48 µM
same,TGI,MDA-MB-435,2.61 µM
same,TGI,MDA-N,2.09 µM
same,TGI,NCI-H226 lung,> 10 µM
same,TGI,RXF 393 renal,4.32 µM
same,TGI,EKVX NSCLC,5.4 µM
same,TGI,MALME-3M melanoma,3.12 µM
same,TGI,SF-268 CNS,3.94 µM
same,TGI,SK-MEL-2 melanoma,3.53 µM
same,TGI,HCT-15 colon,4.01 µM
same,TGI,SW-620 colon,3.74 µM
same,TGI,SN12C renal,> 10 µM
same,TGI,HS 578T breast,8.2 µM
same,TGI,MDA-MB-231 breast,6.89 µM
O=C(/C=C/c1ccc(O)c(O)c1)OCCc1cccc2ccccc12,TGI,OVCAR-5 ovarian,31.7 µM
same,TGI,PC-3 prostate,16.3 µM
same,TGI,CAKI-1 renal,20.7 µM
same,TGI,HCT-116 colon,14.6 µM
same,TGI,NCI-H522 lung,4.17 µM
same,TGI,MCF7 breast,25.7 µM
same,TGI,DU-145 prostate,18.6 µM
same,TGI,HT29 colon,27.5 µM
same,TGI,IGROV1 ovarian,14.5 µM
same,TGI,OVCAR-3 ovarian,14.1 µM
same,TGI,NCI-H23 lung,14 µM
same,TGI,HOP-92 NSCLC,23.8 µM
same,TGI,MOLT-4 leukemia,12.3 µM
same,TGI,SR leukemia,5.64 µM
same,TGI,SNB-75 CNS,9.57 µM
same,TGI,T-47D breast,42.3 µM
same,TGI,COLO 205 colon,20.5 µM
same,TGI,BT-549 breast,21.2 µM
same,TGI,UACC-62 melanoma,15 µM
same,TGI,786-0 renal,12.7 µM
same,TGI,NCI/ADR-RES ovarian,29.4 µM
same,TGI,ACHN renal,13.4 µM
same,TGI,SK-MEL-5 melanoma,5.31 µM
same,TGI,U251 CNS,21.7 µM
same,TGI,HCC-2998 colon,23.4 µM
same,TGI,SF-295 CNS,17.9 µM
same,TGI,OVCAR-4 ovarian,23.9 µM
same,TGI,A498 renal,24.8 µM
same,TGI,UO-31 renal,18.4 µM
same,TGI,A549 NSCLC,19.7 µM
same,TGI,SK-MEL-28 melanoma,16.9 µM
same,TGI,OVCAR-8 ovarian,19.9 µM
same,TGI,RPMI-8226 leukemia,20.5 µM
same,TGI,UACC-257 melanoma,28.2 µM
same,TGI,K-562 leukemia,9.08 µM
same,TGI,NCI-H460 lung,29.9 µM
same,TGI,HL-60(TB) leukemia,3.52 µM
same,TGI,M14 melanoma,20.3 µM
same,TGI,KM12 colon,23.4 µM
same,TGI,CCRF-CEM leukemia,11.2 µM
same,TGI,SNB-19 CNS,28.4 µM
same,TGI,TK-10 renal,13.6 µM
same,TGI,SF-539 CNS,18.2 µM
same,TGI,MDA-MB-435,4.65 µM
same,TGI,MDA-N,5.26 µM
same,TGI,NCI-H226 lung,58.6 µM
same,TGI,RXF 393 renal,25.1 µM
same,TGI,MALME-3M melanoma,19.5 µM
same,TGI,SF-268 CNS,27 µM
same,TGI,SK-MEL-2 melanoma,10.2 µM
same,TGI,HCT-15 colon,9.64 µM
same,TGI,SW-620 colon,18.9 µM
same,TGI,SN12C renal,7.96 µM
same,TGI,MDA-MB-231 breast,7.56 µM

# Source: PubChem BioAssay (NCI)
